Measurements reported in PubChem BioAssay (NCI).
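Assay format: 96-well plates, 48-hour exposure. GI50 = concentration required for 50% inhibition of growth. TGI: concentration producing complete growth inhibition.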

Legend:
Experiment in all cases: inhibition of tumour cell growth, NCI panel, 48 h; in the data active = GI50 below about 0.43 µM; inactive = the rest
[1] = tested on: 786-0 renal
[2] = tested on: A498 renal
[3] = tested on: A549 NSCLC
[4] = tested on: BT-549 breast
[5] = tested on: CAKI-1 renal
[6] = tested on: CCRF-CEM leukemia
[7] = tested on: COLO 205 colon
[8] = tested on: DU-145 prostate
[9] = tested on: HCT-116 colon
[10] = tested on: HCT-15 colon
[11] = tested on: HL-60(TB) leukemia
[12] = tested on: HOP-62 NSCLC
[13] = tested on: HOP-92 NSCLC
[14] = tested on: HS 578T breast
[15] = tested on: HT29 colon
[16] = tested on: IGROV1 ovarian
[17] = tested on: K-562 leukemia
[18] = tested on: KM12 colon
[19] = tested on: LOX IMVI melanoma
[20] = tested on: M14 melanoma
[21] = tested on: MALME-3M melanoma
[22] = tested on: MDA-MB-231 breast
[23] = tested on: MDA-MB-435
[24] = tested on: MDA-MB-468 breast
[25] = tested on: MOLT-4 leukemia
[26] = tested on: NCI-H23 lung
[27] = tested on: NCI-H522 lung
[28] = tested on: NCI/ADR-RES ovarian
[29] = tested on: OVCAR-8 ovarian
[30] = tested on: PC-3 prostate
[31] = tested on: RPMI-8226 leukemia
[32] = tested on: RXF 393 renal
[33] = tested on: SF-268 CNS
[34] = tested on: SF-295 CNS
[35] = tested on: SF-539 CNS
[36] = tested on: SK-MEL-2 melanoma
[37] = tested on: SK-MEL-28 melanoma
[38] = tested on: SK-OV-3 ovarian
[39] = tested on: SNB-19 CNS
[40] = tested on: SNB-75 CNS
[41] = tested on: SR leukemia
[42] = tested on: SW-620 colon
[43] = tested on: TK-10 renal
[44] = tested on: U251 CNS
[45] = tested on: UACC-257 melanoma
[46] = tested on: UACC-62 melanoma

Cc1noc2c(Cc3ccccc3)nn(CC(=O)N/N=C/c3ccc(Cl)cc3)c(=O)c12
31.2 µM: TGI [16]
> 100 µM: TGI [3] | TGI [6] | TGI [7] | TGI [8] | TGI [9] | TGI [10] | TGI [11] | TGI [15] | TGI [17] | TGI [18] | TGI [19] | TGI [20] | TGI [23] | TGI [25] | TGI [27] | TGI [28] | TGI [29] | TGI [30] | TGI [31] | TGI [33] | TGI [37] | TGI [41] | TGI [42] | TGI [44] | TGI [45]
8.64 µM: TGI [34]
90.6 µM: TGI [4]
35.9 µM: TGI [35]
inactive: GI50 [1] 1.94 µM | GI50 [2] 1.65 µM | GI50 [3] 3.87 µM | GI50 [4] 23.8 µM | GI50 [5] 2.88 µM | GI50 [6] 21.1 µM | GI50 [7] 5.04 µM | GI50 [8] > 100 µM | GI50 [9] 3.16 µM | GI50 [10] > 100 µM | GI50 [11] > 100 µM | GI50 [12] 2.06 µM | GI50 [13] 3.01 µM | GI50 [14] 2.31 µM | GI50 [15] > 100 µM | GI50 [16] 6.95 µM | GI50 [17] 88.6 µM | GI50 [18] > 100 µM | GI50 [19] 5.61 µM | GI50 [20] 43.6 µM | GI50 [21] 4.23 µM | GI50 [22] 2.59 µM | GI50 [23] > 100 µM | GI50 [24] 8.11 µM | GI50 [25] > 100 µM | GI50 [26] 10.2 µM | GI50 [27] 15.4 µM | GI50 [28] 4.93 µM | GI50 [29] 3.18 µM | GI50 [30] > 100 µM | GI50 [31] 8.98 µM | GI50 [32] 2.15 µM | GI50 [33] 7.82 µM | GI50 [34] 3.19 µM | GI50 [35] 14.1 µM | GI50 [36] 19.1 µM | GI50 [37] > 100 µM | GI50 [38] 2.34 µM | GI50 [39] 8.48 µM | GI50 [40] 1.59 µM | GI50 [41] 31.2 µM | GI50 [42] > 100 µM | GI50 [43] 1.9 µM | GI50 [44] 3.64 µM | GI50 [45] > 100 µM | GI50 [46] 18.3 µM
6.23 µM: TGI [14]
38.4 µM: TGI [36]
7.3 µM: TGI [22]
5.85 µM: TGI [38]
53.7 µM: TGI [26]
4.36 µM: TGI [40]
3.84 µM: TGI [1]
6.87 µM: TGI [32]
4.74 µM: TGI [43]
26.7 µM: TGI [39]
29.1 µM: TGI [21]
11.1 µM: TGI [5]
4.97 µM: TGI [12]
86 µM: TGI [46]
16.6 µM: TGI [13]
36.2 µM: TGI [24]
3.11 µM: TGI [2]
